Source: ChEMBL document CHEMBL1201862, “PubChem BioAssay data set” (2004)
Calls of active or inactive are those of the source.

How the values were obtained:
[1] = DRD fibroblast viability loss – cell-based, non-viral oncogenic, luminescence, dose response (AID 1934); format: functional; conditions: Homo sapiens
BJ [2] = test: cells; format: functional, cell-based; conditions: Homo sapiens
BJ [3] = test: BJ-TERT fibroblast viability loss – cell-based, RAS-independent, luminescence, dose response (AID 1933); format: functional; conditions: Homo sapiens
BJ [4] = test: BJ-TERT-LT-ST fibroblast viability loss – cell-based, RAS-independent, luminescence, dose response (AID 1935); format: functional; conditions: Homo sapiens;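 further: BJ fibroblasts immortalized with TERT plus LT and ST oncogenes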
SN12K1 = test: cells; format: functional; conditions: Homo sapiens
P388 = test: cells; format: functional; conditions: Mus musculus
P388/ADR = test: cells; format: functional; conditions: Mus musculus
[5] = viability of HCT116 lacking mutant beta-catenin – cell-based, human colon tumor, dose response (AID 1045); format: functional;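 further: HCT116 colon tumor cells with beta catenin knocked out; cells exposed to compound for 60 hours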
[6] = viability of PTEN-deleted HCT116 cells – cell-based, HCT116 PTEN knockout, dose response (AID 1047); format: functional;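 further: HCT116 colon tumor cells with PTEN knocked out; cells exposed to compound for 60 hours before readout; potency for loss of cell viability measured by luminescence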
[7] = luciferase reporter signal suppression in cells – H4 neuroglioma cells, luminescence, dose response (AID 1990); format: functional, cell-based
[8] = Luminescence Cell-Based Dose Response HTS to Identify Inhibitors of 5'UTR Stem-Loop Driven Prion Protein mRNA Translation in H4 Neuroglioblastoma Cells. [Related pubchem assays: 1827 (Project Summary), 1813 (Primary HTS)]; format: functional
[9] = P. falciparum Dd2 growth inhibitors, dose response, SYBR Green, cherry-picked samples (AID 1159567); format: functional, cell-based
[10] = reduction of Shn3 3'UTR-driven luciferase in osteoblasts – cell-based, Clone20 osteoblasts, firefly luciferase, cherry-picked, dose response (AID 624132); format: functional;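 further: firefly luciferase luminescence from reporter carrying the Shn3 3'UTR in osteoblasts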
[11] = molecular target: T1, Ubiquitin-conjugating enzyme E2 N (Homo sapiens, UniProt P61088); format: functional;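 further: Dose-response confirmation in a TR-FRET assay detecting UBC13-driven polyubiquitin chain formation, inhibition measured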
T1 sequence (P61088 whole entry): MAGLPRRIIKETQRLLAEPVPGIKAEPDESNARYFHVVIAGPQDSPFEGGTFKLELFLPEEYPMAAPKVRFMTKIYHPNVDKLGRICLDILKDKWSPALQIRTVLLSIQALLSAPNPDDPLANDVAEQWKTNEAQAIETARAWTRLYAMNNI

[12] = non-specific 3'UTR reporter inhibition in Clone20-Shn3RL – cell-based, Renilla luciferase, cherry-picked, counter-screen for Shn3 inhibitor project, dose response (AID 624133); format: functional
[13] = loss of viability in HepG2 cells – cell-based, CellTiter-Glo, cherry-picked, cytotoxicity control for Shn3 inhibitor project, dose response (AID 624134); format: functional
Cytochrome P450 2C9 = Cytochrome P450 2C9 (Homo sapiens, UniProt P11712)
Chain of Cytochrome P450 2C9 (P11712 whole entry): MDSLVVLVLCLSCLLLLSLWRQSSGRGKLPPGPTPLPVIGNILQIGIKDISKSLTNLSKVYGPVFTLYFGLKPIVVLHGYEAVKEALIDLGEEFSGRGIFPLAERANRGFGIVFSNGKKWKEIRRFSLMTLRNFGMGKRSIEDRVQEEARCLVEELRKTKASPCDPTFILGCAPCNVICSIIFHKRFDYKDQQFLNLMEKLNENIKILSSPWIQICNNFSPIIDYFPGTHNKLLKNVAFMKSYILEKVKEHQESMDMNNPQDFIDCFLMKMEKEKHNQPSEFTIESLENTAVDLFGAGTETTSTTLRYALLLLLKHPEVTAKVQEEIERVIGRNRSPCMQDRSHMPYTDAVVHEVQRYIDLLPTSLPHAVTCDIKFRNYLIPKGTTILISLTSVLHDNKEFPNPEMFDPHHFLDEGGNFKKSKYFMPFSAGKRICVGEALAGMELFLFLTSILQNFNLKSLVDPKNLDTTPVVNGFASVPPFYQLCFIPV

Cytochrome P450 2C19 = Cytochrome P450 2C19 (Homo sapiens, UniProt P33261); test: Cytochrome panel assay with activity outcomes. Panel member name: p450-cyp2c19 Compounds with AC50 equal or less than 10 uM are considered active; format: functional; conditions: read-out: AC50
Chain of Cytochrome P450 2C19 (P33261 whole entry): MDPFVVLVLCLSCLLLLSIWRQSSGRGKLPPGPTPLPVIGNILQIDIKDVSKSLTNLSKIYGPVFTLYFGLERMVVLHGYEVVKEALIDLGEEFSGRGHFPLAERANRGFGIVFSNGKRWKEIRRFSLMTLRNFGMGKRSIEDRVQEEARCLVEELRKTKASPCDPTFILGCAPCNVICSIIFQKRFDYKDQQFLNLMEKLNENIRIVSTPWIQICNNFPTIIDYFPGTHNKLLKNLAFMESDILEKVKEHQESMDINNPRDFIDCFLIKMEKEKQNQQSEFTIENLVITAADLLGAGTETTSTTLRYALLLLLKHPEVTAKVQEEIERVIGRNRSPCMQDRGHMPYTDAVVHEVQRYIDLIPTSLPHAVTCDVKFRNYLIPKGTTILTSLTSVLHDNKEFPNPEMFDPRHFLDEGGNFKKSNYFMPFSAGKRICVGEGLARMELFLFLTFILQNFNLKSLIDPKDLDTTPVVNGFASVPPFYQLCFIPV

Cytochrome P450 2D6 = Cytochrome P450 2D6 (Homo sapiens, UniProt P10635);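 further: CYP2D6 member of a cytochrome P450 panel assay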
Chain of Cytochrome P450 2D6 (P10635 whole entry): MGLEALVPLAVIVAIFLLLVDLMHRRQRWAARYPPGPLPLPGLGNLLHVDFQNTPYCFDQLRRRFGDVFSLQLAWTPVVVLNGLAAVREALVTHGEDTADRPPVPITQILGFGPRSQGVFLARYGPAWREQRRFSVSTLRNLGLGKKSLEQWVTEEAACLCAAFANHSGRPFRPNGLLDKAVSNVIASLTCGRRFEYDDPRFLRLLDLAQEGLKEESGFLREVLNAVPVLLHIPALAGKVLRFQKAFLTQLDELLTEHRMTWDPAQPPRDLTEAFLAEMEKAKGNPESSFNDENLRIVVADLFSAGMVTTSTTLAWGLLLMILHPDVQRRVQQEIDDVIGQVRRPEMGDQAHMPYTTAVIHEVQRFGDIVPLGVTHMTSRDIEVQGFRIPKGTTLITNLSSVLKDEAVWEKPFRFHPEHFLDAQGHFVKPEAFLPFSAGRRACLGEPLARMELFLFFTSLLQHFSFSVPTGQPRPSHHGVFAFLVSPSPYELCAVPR

[14] = alpha-synuclein stem-loop luciferase translation blockers – H4 neuroglioma cells, luminescence, confirmation (AID 1988); format: functional, cell-based
cells = format: functional
[15] = Trypanosoma cruzi growth suppression in host cells – NIH3T3 host cells, beta-gal luminescence, confirmation (AID 2044); format: functional, cell-based;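 further: intracellular parasites grown in NIH/3T3 mouse fibroblasts as host cells; luminescent beta-galactosidase reporter signal from transgenic T. cruzi replicating inside host cells; inhibitors lower the luminescence signal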
[16] = NIH3T3 cell viability loss – ATP luminescence, mouse fibroblasts, counter-screen, dose response (AID 2010); format: functional, cell-based;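 further: cells exposed to compound for about 90 hours before reading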
Aminopeptidase N = molecular target: T2, Aminopeptidase N (Plasmodium falciparum FcB1/Columbia, UniProt O96935); test: malaria alanyl aminopeptidase activity blockers – biochemical, fluorogenic H-Leu-NHMec substrate, 1536-well (AID 1445); parameters: species or system Plasmodium falciparum 3D7, 3D7
T2 sequence (O96935 whole entry): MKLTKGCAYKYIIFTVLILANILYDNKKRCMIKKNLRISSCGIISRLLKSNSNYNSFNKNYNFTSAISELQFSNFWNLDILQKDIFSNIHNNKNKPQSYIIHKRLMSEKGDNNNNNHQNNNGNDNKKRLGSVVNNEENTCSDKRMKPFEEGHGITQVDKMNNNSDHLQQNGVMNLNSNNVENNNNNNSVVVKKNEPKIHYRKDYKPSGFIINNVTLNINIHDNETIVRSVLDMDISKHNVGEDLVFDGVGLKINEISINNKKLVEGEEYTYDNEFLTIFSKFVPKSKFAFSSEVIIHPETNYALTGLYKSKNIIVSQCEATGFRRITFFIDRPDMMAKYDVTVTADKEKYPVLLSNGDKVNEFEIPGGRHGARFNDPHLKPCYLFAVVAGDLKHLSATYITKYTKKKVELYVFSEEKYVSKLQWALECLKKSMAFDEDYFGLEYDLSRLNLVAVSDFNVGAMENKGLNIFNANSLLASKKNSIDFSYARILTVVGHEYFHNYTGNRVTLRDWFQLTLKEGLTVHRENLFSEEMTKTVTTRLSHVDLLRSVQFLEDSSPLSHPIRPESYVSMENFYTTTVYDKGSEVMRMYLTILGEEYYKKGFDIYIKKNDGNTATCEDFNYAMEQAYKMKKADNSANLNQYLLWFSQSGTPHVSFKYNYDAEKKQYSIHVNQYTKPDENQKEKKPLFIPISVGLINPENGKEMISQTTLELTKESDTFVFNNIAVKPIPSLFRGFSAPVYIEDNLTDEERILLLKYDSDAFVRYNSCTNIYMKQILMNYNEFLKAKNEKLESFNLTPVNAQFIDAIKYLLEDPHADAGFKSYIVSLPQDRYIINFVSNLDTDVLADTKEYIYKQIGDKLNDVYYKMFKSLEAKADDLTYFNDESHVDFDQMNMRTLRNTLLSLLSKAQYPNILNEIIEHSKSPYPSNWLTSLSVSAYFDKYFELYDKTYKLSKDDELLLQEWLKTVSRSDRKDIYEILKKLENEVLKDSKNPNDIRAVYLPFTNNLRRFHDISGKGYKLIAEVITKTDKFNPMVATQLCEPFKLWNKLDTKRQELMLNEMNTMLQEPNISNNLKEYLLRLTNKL

In the case of Cc1cc(C(=O)N/N=C/c2ccc3c(c2)OCO3)c2ccccc2n1, the EC50 [1] is reported as 22.7 µM (active), the EC50 (BJ [2]) is reported as 33.6 µM (active) and the EC50 (BJ [3]) is reported as 12.7 µM (active). The EC50 (BJ [4]) was 20.9 µM (active).
In the case of CNC(=O)OCc1nc(SC)n(C)c1COC(=O)NC, the GI50 (SN12K1) is reported as 115 µM (inactive), the GI50 (P388) is reported as 75 µM (inactive) and the GI50 (P388/ADR) is reported as 147 µM (inactive).
In the case of COc1ccc(-c2[nH]c(-c3ccc4c(c3)OCO4)nc2-c2ccccc2)cc1, the EC50 [5] is reported as 20.7 µM (active) and the EC50 [6] is reported as 15.9 µM (active).
With COc1ccc(-n2c(SC(C)C(=O)Nc3ncc(Cl)cc3Cl)nc3ccccc32)cc1 (configuration not stated) the EC50 [1] was 89.7 µM (active), the EC50 (BJ [2]) was 22.3 µM (active) and the EC50 (BJ [3]) was 29.8 µM (active). The EC50 [7] was 12.6 µM (active), the EC50 (BJ [4]) was > 150 µM (not active) and the EC50 [8] was 38.4 µM (active).
For COc1ccccc1S(=O)(=O)N1[C@@H]2CNC[C@H]1[C@H]2c1ccc(-c2ccccc2C)cc1, the AC50 [9] was 27.7 µM (active).
In the case of COc1ccc(CCN2C(=O)c3ccccc3NC2c2cc(Cl)c(O)c(OC)c2)cc1 (configuration not stated), the EC50 [1] is reported as 12.9 µM (active), the EC50 (BJ [2]) is reported as > 150 µM (inconclusive) and the EC50 (BJ [3]) is reported as 11.3 µM (inconclusive). For the same compound, the EC50 (BJ [4]) was 25.7 µM (inconclusive).
In the case of COc1ccc(-c2noc(CCC(=O)NCCCN3CCC(Cc4ccccc4)CC3)n2)cc1, the AC50 [10] is reported as 4.03 µM (active), the IC50 [11] is reported as > 20 µM (inactive) and the EC50 [1] is reported as 18.5 µM (active). The EC50 (BJ [2]) was > 150 µM (not active), the EC50 (BJ [3]) was 23.2 µM (active) and the AC50 [12] was 20.7 µM (active). For the same compound, the AC50 [13] was 30.4 µM (active) and the EC50 (BJ [4]) was > 150 µM (not active).
For Cc1ccc(C)c(NC(=O)Cn2nnc(C(=O)Nc3c(C)cccc3C)c2N)c1, the AC50 (Cytochrome P450 2C9) was “inconclusive” and the AC50 (Cytochrome P450 2C19) was 17.8 µM (inconclusive).
For Cn1cccc1/C=N/NC(=O)c1sc2ccccc2c1Cl, the AC50 (Cytochrome P450 2C9) was “inconclusive” and the AC50 (Cytochrome P450 2D6) was 10 µM (inconclusive).
For C/C=C(\C)c1cc(=O)c2c(C)cc3c(c2o1)C(=O)c1c(O)c(C2CC(C)(N(C)C)C(O)C(C)O2)cc(C2CC(N(C)C)C(O)C(C)O2)c1C3=O (configuration not stated), the GI50 (SN12K1) was 1.26 µM (inactive), the GI50 (P388) was 0.964 µM (active) and the GI50 (P388/ADR) was 3.08 µM (inactive).
With Cc1ccccc1Cn1cc(NC(=O)c2noc(C(C)C)c2[N+](=O)[O-])cn1 the EC50 [14] was > 120 µM (not active), the IC50 (cells) was 7.8 µM (active) and the EC50 [7] was > 120 µM (not active). The EC50 [8] was > 120 µM (not active).
For CC(C)=CC(=O)OC1C2C(C)C(=O)OC2C(O)C(C)C2C=CC(=O)C21C (configuration not stated), the GI50 (SN12K1) was 2.39 µM (inactive), the GI50 (P388) was 0.627 µM (active) and the GI50 (P388/ADR) was 0.615 µM (active).
With OC(CNc1ccccc1)COc1ccc(OCC(O)CNc2ccccc2)cc1 (configuration not stated) the EC50 [15] was 3.54 µM (active), the EC50 [5] was 15 µM (active) and the EC50 [6] was 15.6 µM (active). The EC50 [16] was > 60 µM (not active).
For COc1ccccc1CC(=O)O/N=C(\N)Cc1cccc2ccccc12, the AC50 (Cytochrome P450 2C9) was “inconclusive”.
With COc1cc(/C=C/C(=O)O)cc(S(=O)(=O)NCc2ccc3c(c2)OCO3)c1OC the IC50 (Aminopeptidase N) was 81.9 µM (active).
With COCCCNC(=O)c1cc2c(=O)n(C)c3ccccc3c2n1C the EC50 [5] was 15.4 µM (active) and the EC50 [6] was 14.4 µM (active).
In the case of CCCc1cc2c(cc1NC(=O)c1ccccc1Cl)OCO2, the AC50 (Cytochrome P450 2C9) is reported as “inconclusive” and the AC50 (Cytochrome P450 2D6) is reported as 28.2 µM (inconclusive).
